Measurements reported in US11834453B2, “Substituted pyrimido[5,4-d]pyrimidines as HER2 inhibitors” (Array BioPharma Inc., priority 2020, dated 2023).
Read-outs that look alike come from different tables or passages of the source.

What was measured:
[1] = target: ErbB2 insYVMA (HER2-YVMA, SEQ ID NO: 2) (Homo sapiens, UniProt P04626, INS775YVMA/P1170A); assay: biochemical; details: ErbB2 insYVMA enzyme assay
ErbB2 WT = ErbB2 WT (Homo sapiens (Human), UniProt P04626); assay: ErbB enzyme assay (CisBio HTRF KinEASE-TK), Assay 2; type: biochemical
Outline: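 ErbB2 phosphorylates 250 nM biotin-TK substrate at 1 mM ATP in 25 mM HEPES pH 7.4, 10 mM MgCl2, 0.01% Triton X-100 and 2% DMSO, for 30 min at 22 °C. Product is detected by HTRF with Sa-XL665 and TK-Ab-Cryptate. Percent of control is set by DMSO-only wells and pre-quenched wells.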

EGFR = EGFR (Homo sapiens (Human), UniProt P00533); assay: ErbB enzyme assay (CisBio HTRF KinEASE-TK), Assay 3; type: biochemical
Outline: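 Inhibition is measured as reduced peptide phosphorylation by HTRF KinEASE-TK at 1 mM ATP and 250 nM substrate, 30 min at 22 °C. Values are IC50s from a 4-parameter logistic fit.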

[2] = target: ErbB2 with Exon 20 YVMA insertion (HER2-YVMA) (Homo sapiens (Human), UniProt P04626, INS775YVMA); assay: Cellular phosphorylation assay, constitutive ErbB2 phosphorylation (Y1196) in engineered NIH 3T3 cells, Assay 4; type: cell-based
Sequence of ErbB2 with Exon 20 YVMA insertion (HER2-YVMA) (P04626 other isoform, or with tags, fused parts or gaps ins YVMA behind 775): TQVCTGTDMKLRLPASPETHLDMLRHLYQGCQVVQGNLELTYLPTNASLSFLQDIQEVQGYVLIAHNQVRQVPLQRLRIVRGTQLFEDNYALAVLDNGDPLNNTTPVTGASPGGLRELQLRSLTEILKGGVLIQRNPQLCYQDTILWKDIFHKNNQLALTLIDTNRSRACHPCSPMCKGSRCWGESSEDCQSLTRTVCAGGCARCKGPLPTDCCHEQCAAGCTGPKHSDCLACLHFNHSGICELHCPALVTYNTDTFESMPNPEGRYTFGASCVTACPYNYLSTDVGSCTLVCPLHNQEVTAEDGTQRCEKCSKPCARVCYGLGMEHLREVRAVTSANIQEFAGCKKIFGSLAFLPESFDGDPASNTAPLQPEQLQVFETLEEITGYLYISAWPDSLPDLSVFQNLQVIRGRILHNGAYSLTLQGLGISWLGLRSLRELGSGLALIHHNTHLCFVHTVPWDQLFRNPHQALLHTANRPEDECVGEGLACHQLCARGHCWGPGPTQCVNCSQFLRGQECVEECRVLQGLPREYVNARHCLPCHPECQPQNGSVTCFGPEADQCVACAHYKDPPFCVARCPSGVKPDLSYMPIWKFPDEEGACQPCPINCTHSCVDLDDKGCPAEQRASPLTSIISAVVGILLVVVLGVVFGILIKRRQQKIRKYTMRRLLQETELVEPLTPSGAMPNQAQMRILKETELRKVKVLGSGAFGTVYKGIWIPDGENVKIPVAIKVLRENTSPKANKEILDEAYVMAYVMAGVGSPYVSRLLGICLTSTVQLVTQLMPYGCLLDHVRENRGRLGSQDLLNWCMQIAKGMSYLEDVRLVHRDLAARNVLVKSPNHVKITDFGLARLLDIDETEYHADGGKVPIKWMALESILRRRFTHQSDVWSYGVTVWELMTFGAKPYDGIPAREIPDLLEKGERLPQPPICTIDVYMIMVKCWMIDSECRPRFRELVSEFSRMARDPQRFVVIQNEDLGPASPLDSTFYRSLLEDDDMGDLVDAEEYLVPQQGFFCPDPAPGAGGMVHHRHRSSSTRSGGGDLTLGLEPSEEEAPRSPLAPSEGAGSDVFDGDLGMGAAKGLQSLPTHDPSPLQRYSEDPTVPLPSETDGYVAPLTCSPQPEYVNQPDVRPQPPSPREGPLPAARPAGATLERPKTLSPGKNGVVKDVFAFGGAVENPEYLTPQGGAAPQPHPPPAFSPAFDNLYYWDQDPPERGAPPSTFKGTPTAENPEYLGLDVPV
Outline: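 Engineered NIH 3T3 cells expressing HER2-YVMA treated with compounds 1 h at 37 °C, then formaldehyde-fixed and methanol-permeabilized. pErbB2 Y1196 detected by in-cell infrared immunofluorescence, normalized to GAPDH. IC50 from the normalized curves.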

EGFR wild type (EGFR WT) [3] = target: T1, EGFR wild type (EGFR WT) (Homo sapiens (Human), UniProt P00533); assay: Cellular phosphorylation assay, EGF-stimulated EGFR phosphorylation (Y1068) in engineered NIH 3T3 cells, Odyssey imaging, Assay 5 (footnote 1); type: cell-based; details: values marked with footnote 1
Experimental: NIH 3T3 cells were engineered to express ErbB2 with Exon 20 YVMA insertion (HER2-YVMA (SEQ ID NO: 2); Assay 4) or EGFR wild type (EGFR WT; Assay 5, footnote 1) with constructs obtained from GenScript and grown in DMEM supplemented with 10% fetal bovine serum and 15 μg/ml blasticidin. Cells were plated in 96-well plates at 40,000 or 45,000 cells/well for HER2-YVMA (SEQ ID NO: 2) and EGFR WT assays, respectively, and allowed to attach overnight at 37° C./5% CO2. Serially diluted compounds were added to the plates for 1 hour at 37° C./5% CO2. EGFR WT cells were stimulated with 100 ng/ml rEGF for an additional 10 minutes at 37° C./5% CO2. After compound incubation, medium was removed from the cells, which were then fixed in 3.7% formaldehyde in PBS at room temperature for 20 minutes. Following a wash with PBS, cells were permeabilized with 100% methanol at room temperature for 10 minutes. Cells were then washed with PBS/0.05% Tween-20 and blocked with Odyssey blocking buffer (LI-COR Biosciences) for at least 1 hour at room temperature. Antibodies to phosphorylated ErbB2 (Y1196, Cell Signaling #6942) or phosphorylated EGFR (Y1068, Cell Signaling #3777) and GAPDH (Millipore #MAB374) were added to the cells in blocking buffer containing 0.05% azide and incubated overnight at 4° C. After washing with PBS/0.05° i° Tween-20, the cells were incubated with fluorescently labeled secondary anti-rabbit antibody (LiCOR, IRDye 800CW #926-32211) and anti-mouse antibody (Molecular Probes, Alexa Fluor 680 #A21058) for 1 hour at room temperature in the dark. Cells were then washed and analyzed for fluorescence at both wavelengths using the Odyssey Infrared Imaging System (LI-COR Biosciences). Phosphorylated ErbB2 and EGFR signal was normalized to GAPDH signal to generate curves and calculate IC50 values.

EGFR wild type (EGFR WT) [4] = target: T1, EGFR wild type (EGFR WT); assay: Cellular phosphorylation assay, EGF-stimulated EGFR phosphorylation in engineered NIH 3T3 cells, Phospho-EGFR DuoSet IC ELISA, Assay 5; type: cell-based
Outline: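 NIH 3T3 cells expressing EGFR WT (20,000/well, attached overnight) were exposed to serially diluted compound for 1 h at 37 °C, then stimulated with 100 ng/ml rEGF for 10 min. Phospho-EGFR in lysates measured by sandwich ELISA optical density; IC50 from curves.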

MDR1 (P-gp) = MDR1 (P-gp) (Homo sapiens (Human), UniProt P08183); assay: MDR1 transfected MDCKII canine Mdr1 knockout permeability/efflux, Assay 7; details: dog, MDCK-MDR1
Sequence of MDR1 (P-gp) (P08183 whole entry): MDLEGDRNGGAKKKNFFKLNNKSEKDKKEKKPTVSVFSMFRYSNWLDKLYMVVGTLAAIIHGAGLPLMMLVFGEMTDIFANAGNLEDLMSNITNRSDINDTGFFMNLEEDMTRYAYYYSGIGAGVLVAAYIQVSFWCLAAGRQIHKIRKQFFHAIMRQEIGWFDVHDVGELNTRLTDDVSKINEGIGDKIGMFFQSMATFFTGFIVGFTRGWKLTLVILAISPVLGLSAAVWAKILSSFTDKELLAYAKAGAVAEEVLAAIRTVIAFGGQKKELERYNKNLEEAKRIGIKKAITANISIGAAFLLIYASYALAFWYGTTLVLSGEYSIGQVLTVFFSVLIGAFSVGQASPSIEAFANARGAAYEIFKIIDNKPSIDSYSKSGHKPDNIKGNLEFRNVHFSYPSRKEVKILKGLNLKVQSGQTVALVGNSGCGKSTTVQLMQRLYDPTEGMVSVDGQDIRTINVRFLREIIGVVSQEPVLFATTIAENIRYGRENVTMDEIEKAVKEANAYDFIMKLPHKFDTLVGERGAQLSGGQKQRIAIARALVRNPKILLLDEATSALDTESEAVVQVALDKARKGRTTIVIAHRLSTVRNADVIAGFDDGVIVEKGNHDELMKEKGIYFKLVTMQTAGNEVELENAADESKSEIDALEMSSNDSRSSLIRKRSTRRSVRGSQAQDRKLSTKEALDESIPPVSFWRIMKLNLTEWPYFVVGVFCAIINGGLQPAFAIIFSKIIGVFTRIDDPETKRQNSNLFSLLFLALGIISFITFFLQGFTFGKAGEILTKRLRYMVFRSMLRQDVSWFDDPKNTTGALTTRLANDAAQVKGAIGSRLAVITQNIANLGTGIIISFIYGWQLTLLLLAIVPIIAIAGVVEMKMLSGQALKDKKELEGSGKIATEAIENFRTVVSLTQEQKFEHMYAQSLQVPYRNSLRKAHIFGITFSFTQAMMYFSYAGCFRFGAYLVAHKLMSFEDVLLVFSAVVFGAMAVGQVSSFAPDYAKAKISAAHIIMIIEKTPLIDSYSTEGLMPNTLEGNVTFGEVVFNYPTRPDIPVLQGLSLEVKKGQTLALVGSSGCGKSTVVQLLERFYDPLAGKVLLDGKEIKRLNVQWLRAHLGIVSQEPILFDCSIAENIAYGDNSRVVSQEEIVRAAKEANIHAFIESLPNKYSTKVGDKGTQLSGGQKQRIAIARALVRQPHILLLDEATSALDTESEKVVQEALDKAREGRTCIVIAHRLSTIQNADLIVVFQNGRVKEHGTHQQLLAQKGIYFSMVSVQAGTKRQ

BCRP = BCRP (Homo sapiens (Human), UniProt Q9UNQ0); assay: BCRP transfected MDCKII canine Mdr1 knockout permeability/efflux, Assay 9; details: dog
Sequence of BCRP (Q9UNQ0 whole entry): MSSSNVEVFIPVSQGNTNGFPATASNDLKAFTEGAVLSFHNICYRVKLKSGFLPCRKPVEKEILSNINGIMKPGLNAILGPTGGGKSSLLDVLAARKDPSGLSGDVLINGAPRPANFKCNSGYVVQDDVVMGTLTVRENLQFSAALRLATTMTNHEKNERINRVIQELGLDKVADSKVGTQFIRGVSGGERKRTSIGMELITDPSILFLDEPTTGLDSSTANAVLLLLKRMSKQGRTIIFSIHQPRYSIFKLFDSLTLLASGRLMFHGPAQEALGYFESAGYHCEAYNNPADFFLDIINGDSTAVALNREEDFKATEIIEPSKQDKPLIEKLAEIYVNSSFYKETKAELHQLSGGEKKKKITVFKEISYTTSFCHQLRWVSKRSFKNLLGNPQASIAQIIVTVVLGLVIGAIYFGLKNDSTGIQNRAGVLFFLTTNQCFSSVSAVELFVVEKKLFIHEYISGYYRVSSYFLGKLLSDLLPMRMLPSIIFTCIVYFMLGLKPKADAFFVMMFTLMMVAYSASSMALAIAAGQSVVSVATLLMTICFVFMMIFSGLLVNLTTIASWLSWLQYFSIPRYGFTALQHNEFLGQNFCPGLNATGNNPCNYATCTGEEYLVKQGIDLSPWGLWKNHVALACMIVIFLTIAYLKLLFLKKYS

[5] = Assay 9 Pe Ratio, efflux ratio Papp(B-A)/Papp(A-B), BCRP transfected MDCKII canine Mdr1 knockout

Sequence of ErbB2 insYVMA (HER2-YVMA, SEQ ID NO: 2) (P04626 with tags, fused parts or gaps INS775YVMA/P1170A limits assumed): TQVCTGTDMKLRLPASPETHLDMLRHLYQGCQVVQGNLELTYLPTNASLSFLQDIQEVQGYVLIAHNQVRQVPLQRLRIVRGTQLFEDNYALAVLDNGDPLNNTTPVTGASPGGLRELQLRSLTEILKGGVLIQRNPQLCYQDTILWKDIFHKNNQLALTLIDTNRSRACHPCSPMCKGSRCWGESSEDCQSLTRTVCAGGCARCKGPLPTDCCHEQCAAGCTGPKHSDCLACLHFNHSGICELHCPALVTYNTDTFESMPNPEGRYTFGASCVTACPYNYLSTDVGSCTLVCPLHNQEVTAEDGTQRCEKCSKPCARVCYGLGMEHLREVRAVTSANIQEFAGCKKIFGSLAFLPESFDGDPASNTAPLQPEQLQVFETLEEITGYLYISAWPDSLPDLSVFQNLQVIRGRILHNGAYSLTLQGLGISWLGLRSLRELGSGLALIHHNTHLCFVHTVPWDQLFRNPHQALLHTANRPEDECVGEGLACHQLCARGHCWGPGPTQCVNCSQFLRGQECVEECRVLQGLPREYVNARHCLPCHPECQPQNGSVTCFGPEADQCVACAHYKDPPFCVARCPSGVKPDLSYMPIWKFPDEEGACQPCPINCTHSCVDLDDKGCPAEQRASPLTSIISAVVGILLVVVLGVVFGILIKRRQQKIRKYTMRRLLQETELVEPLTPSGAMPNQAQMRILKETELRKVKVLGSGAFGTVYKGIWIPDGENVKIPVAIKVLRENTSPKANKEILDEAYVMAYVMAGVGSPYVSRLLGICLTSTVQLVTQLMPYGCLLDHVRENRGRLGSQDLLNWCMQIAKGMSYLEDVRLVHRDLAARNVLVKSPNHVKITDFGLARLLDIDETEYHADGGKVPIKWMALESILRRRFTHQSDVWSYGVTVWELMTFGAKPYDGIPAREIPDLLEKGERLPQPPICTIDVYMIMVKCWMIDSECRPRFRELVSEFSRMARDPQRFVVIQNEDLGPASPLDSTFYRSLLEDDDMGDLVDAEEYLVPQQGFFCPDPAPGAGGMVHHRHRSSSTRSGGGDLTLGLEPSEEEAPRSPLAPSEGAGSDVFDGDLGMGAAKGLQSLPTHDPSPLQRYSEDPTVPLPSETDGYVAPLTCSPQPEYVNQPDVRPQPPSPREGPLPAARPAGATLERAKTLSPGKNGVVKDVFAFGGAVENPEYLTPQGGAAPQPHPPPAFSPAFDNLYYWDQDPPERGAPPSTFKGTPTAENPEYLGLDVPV

Row | Structure (SMILES) | IC50 ([1]; read-out: Assay 1 IC50) [nM] | IC50 (ErbB2 WT) [nM] | IC50 (EGFR) [µM] | IC50 [2] [nM] | IC50 (EGFR wild type (EGFR WT) [3]) [µM] | IC50 (EGFR wild type (EGFR WT) [4]) [µM] | efflux ratio at 2 h, 1 μM (MDR1 (P-gp)) | efflux ratio at 2 h, 1 μM (BCRP; [5]) | IC50 ([1]; Assay 1 IC50 (nM)) [nM] | efflux ratio at 2 h, 1 μM (BCRP)
1 | Cc1cc(Nc2ncnc3cnc(S(C)(=O)=O)nc23)ccc1Oc1ccc2c(c1)ncn2C [Example 2, N-(3-methyl-4-((1-methyl-1H-benzo[d]imidazol-5-yl)oxy)phenyl)-6-(methylsulfonyl)pyrimido[5,4-d]pyrimidin-4-amine] | 7.9 | 14.9 | 4.64 | 4750 | 5 | – | – | – | – | –
2 | CSc1ncc2ncnc(Nc3ccc(Oc4ccc5c(C)onc5c4)c(C)c3)c2n1 [Example 12, N-(3-methyl-4-((3-methylbenzo[c]isoxazol-6-yl)oxy)phenyl)-6-(methylthio)pyrimido[5,4-d]pyrimidin-4-amine] | 64.2 | 275 | ≥ 10 | 403 | 5 | – | – | – | – | –
3 | COc1ncc2ncnc(Nc3ccc(Oc4ccc5c(C)onc5c4)c(C)c3)c2n1 [Example 6, 6-methoxy-N-(3-methyl-4-((3-methylbenzo[c]isoxazol-6-yl)oxy)phenyl)pyrimido[5,4-d]pyrimidin-4-amine] | 24.6 | 232 | ≥ 10 | 1450 | 5 | – | – | – | – | –
4 | Cc1cc(Nc2ncnc3cnc(S(C)(=O)=O)nc23)ccc1Oc1ccc2c(C)onc2c1 [Example 5, N-(3-methyl-4-((3-methylbenzo[c]isoxazol-6-yl)oxy)phenyl)-6-(methylsulfonyl)pyrimido[5,4-d]pyrimidin-4-amine] | 9.8 | 10.9 | 4.15 | 4450 | 5 | – | – | – | – | –
5 | Cc1cc(Nc2ncnc3cnc(N4CC[C@@](C)(O)C4)nc23)ccc1Oc1ccc2c(c1)ncn2C [Example 154, (R)-3-methyl-1-(8-((3-methyl-4-((1-methyl-1H-benzo[d]imidazol-5-yl)oxy)phenyl)amino)pyrimido[5,4-d]pyrimidin-2-yl)pyrrolidin-3-ol] | 10.3 | 8 | 1.94 | 15.7 | – | ≥ 5 | 2.1 | 34 | – | –
6 | Cc1cc(Nc2ncnc3cnc(N(C)C4CCOCC4)nc23)ccc1Oc1ccc2c(c1)ncn2C [Example 153, N2-methyl-N8-(3-methyl-4-((1-methyl-1H-benzo[d]imidazol-5-yl)oxy)phenyl)-N2-(tetrahydro-2H-pyran-4-yl)pyrimido[5,4-d]pyrimidine-2,8-diamine] | 7.6 | 16.3 | 5.55 | 25 | – | ≥ 5 | 1.5 | 1.4 | – | –
7 | Cc1cc(Nc2ncnc3cnc(N(C)[C@H]4C[C@@H](O)C4)nc23)ccc1Oc1ccc2c(c1)ncn2C [Example 183] | 4.4 | 5.8 | 1.05 | 5.1 | – | ≥ 5 | 1.7 | 19.5 | – | –
8 | Cn1cnc2cc(Oc3ccc(Nc4ncnc5cnc(N6CCC67COC7)nc45)cc3Cl)ccc21.O=C(O)C(F)(F)F [Example 145, N-(3-chloro-4-((1-methyl-1H-benzo[d]imidazol-5-yl)oxy)phenyl)-6-(6-oxa-1-azaspiro[3.3]heptan-1-yl)pyrimido[5,4-d]pyrimidin-4-amine] | – | 19.6 | 0.896 | 20.2 | – | ≥ 5 | 0.7 | – | 19.3 | 2.1
9 | Cc1cc(Nc2ncnc3cnc(N(C)[C@H]4C[C@H](O)C4)nc23)ccc1Oc1ccc2c(c1)ncn2C [Example 186, (1r,3r)-3-(methyl(8-((3-methyl-4-((1-methyl-1H-benzo[d]imidazol-5-yl)oxy)phenyl)amino)pyrimido[5,4-d]pyrimidin-2-yl)amino)cyclobutan-1-ol] | 5.7 | 3.7 | 0.592 | 4.1 | – | ≥ 5 | 1.4 | 24.2 | – | –
10 | Cc1cc(Nc2ncnc3cnc(N4C[C@@H](F)[C@@H](O)C4)nc23)ccc1Oc1ccc2c(c1)ncn2C [Example 91, (3S,4R)-4-fluoro-1-(8-((3-methyl-4-((1-methyl-1H-benzo[d]imidazol-5-yl)oxy)phenyl)amino)pyrimido[5,4-d]pyrimidin-2-yl)pyrrolidin-3-ol] | 12.8 | 20.6 | 6.83 | 14.1 | – | ≥ 5 | 2.5 | 50.1 | – | –
11 | Cc1cc(Nc2ncnc3cnc(N(C)C4COC4)nc23)ccc1Oc1ccc2c(c1)ncn2C [Example 175, N2-methyl-N8-(3-methyl-4-((1-methyl-1H-benzo[d]imidazol-5-yl)oxy)phenyl)-N2-(oxetan-3-yl)pyrimido[5,4-d]pyrimidine-2,8-diamine] | 4.2 | 6.3 | 6.51 | 13.9 | – | ≥ 5 | 1.4 | 1.5 | – | –
12 | Cc1cc(Nc2ncnc3cnc(N(C)[C@@H]4CCC[C@H]4O)nc23)ccc1Oc1ccc2c(c1)ncn2C [Example 193, (1R,2R)-2-(methyl(8-((3-methyl-4-((1-methyl-1H-benzo[d]imidazol-5-yl)oxy)phenyl)amino)pyrimido[5,4-d]pyrimidin-2-yl)amino)cyclopentan-1-ol] | 21.2 | 31 | 4.57 | 45.6 | – | ≥ 5 | 1.6 | 7 | – | –
13 | Cn1cnc2cc(Oc3ccc(Nc4ncnc5cnc(N6CCC7COCC76)nc45)cc3Cl)ccc21 (stereo not shown) [Example 114, N-(3-chloro-4-((1-methyl-1H-benzo[d]imidazol-5-yl)oxy)phenyl)-6-(hexahydro-1H-furo[3,4-b]pyrrol-1-yl)pyrimido[5,4-d]pyrimidin-4-amine] | 50.1 | 96.3 | 7.89 | 20.1 | – | ≥ 5 | 1.5 | 1.2 | – | –
14 | Cn1cnc2cc(Oc3ccc(Nc4ncnc5cnc(N6CC[C@H](CC#N)C6)nc45)cc3Cl)ccc21 [Example 358] | 53.2 | 35.8 | ≥ 10 | 19.2 | – | ≥ 5 | 1.6 | 8.9 | – | –
15 | Cc1cc(Nc2ncnc3cnc(N4CC[C@H](C#N)C4)nc23)ccc1Oc1ccc2c(c1)ncn2C [Example 173, (S)-1-(8-((3-methyl-4-((1-methyl-1H-benzo[d]imidazol-5-yl)oxy)phenyl)amino)pyrimido[5,4-d]pyrimidin-2-yl)pyrrolidine-3-carbonitrile] | 21.8 | 50.5 | ≥ 10 | 22.6 | – | ≥ 5 | 1.2 | 4.3 | – | –
